pIC50: −log10 of the molar value. Where two headings read alike, the source gives them in different places.
How the values were obtained:
CDK2/CycE = target: T1, CDK2/CycE (Homo sapiens, UniProt P24941); assay: CDK2/CycE kinase assay (Method 2a, TR-FRET); type: biochemical; settings: 10 μM ATP
T1 construct: GST; purchased ProQinase GmbH (Freiburg, Germany); host or cells: insect cells (Sf9)
Excerpt: 2a. CDK2/CycE kinase assay:
CDK2/CycE-Inhibitory Activity of Compounds of the Present Invention was Quantified Employing the CDK2/CycE TR-FRET Assay as Described in the Following Paragraphs:
Recombinant fusion proteins of GST and human CDK2 and of GST and human CycE, expressed in insect cells (Sf9) and purified by Glutathion-Sepharose affinity chromatography, were purchased from ProQinase GmbH (Freiburg, Germany). As substrate for the kinase reaction biotinylated peptide biotin-Ttds-YISPLKSPYKISEG (C-terminus in amid form) was used which can be purchased e.g. form the company JERINI Peptide Technologies (Berlin, Germany).
For the assay 50 nl of a 100 fold concentrated solution of the test compound in DMSO was pipetted into a black low volume 384 well microtiter plate (Greiner Bio-One, Frickenhausen, Germany), 2 yl of a solution of CDK2/CycE in aqueous assay buffer [50 mM Tris/HCl pH 8.0, 10 mM MgCl2, 1.0 mM dithiothreitol, 0.1 mM sodium ortho-vanadate, 0.01% (v/v) Nonidet-P40 (Sigma)] were added and the mixture was incubated for 15 min at 22° C. to allow pre-binding of the test compounds to the enzyme before the start of the kinase reaction. […] The concentration of CDK2/CycE was adjusted depending of the activity of the enzyme lot and was chosen appropriate to have the assay in the linear range, typical concentrations were in the range of 130 ng/mL. The reaction was stopped by the addition of 5 yl of a solution of TR-FRET detection reagents (0.2 μM streptavidine-XL665 [Cisbio Bioassays, Codolet, France] and 1 nM anti-RB(pSer807/pSer811)-antibody from BD Pharmingen [#558389] and 1.2 nM LANCE EU-W1024 labeled anti-mouse IgG antibody [Perkin-Elmer, product no. AD0077]) in an aqueous EDTA-solution (100 mM EDTA, 0.2% (w/v) bovine serum albumin in 100 mM HEPES/NaOH pH 7.0).
The resulting mixture was incubated 1 h at 22° C. to allow the formation of complex between the phosphorylated biotinylated peptide and the detection reagents. Subsequently the amount of phosphorylated substrate was evaluated by measurement of the resonance energy transfer from the Eu-chelate to the streptavidine-XL. Therefore, the fluorescence emissions at 620 nm and 665 nm after excitation at 350 nm was measured in a TR-FRET reader, e.g. a Rubystar (BMG Labtechnologies, Offenburg, Germany) or a Viewlux (Perkin-Elmer). The ratio of the emissions at 665 nm and at […] was taken as the measure for the amount of phosphorylated substrate. The data were normalised (enzyme reaction without inhibitor=0% inhibition, all other assay components but no enzyme=100% inhibition).

HeLa-MaTu-ADR cells = assay: Proliferation assay HeLa-MaTu-ADR (Method 3); type: cell-based, human; settings: 4 days, crystal violet, read-out: Inhibition of HeLa-MaTu-ADR cell proliferation IC50
Protocol: Cultivated tumour cells (HeLa, human cervical tumour cells, ATCC CCL-2; NCI-H460, human non-small cell lung carcinoma cells, ATCC HTB-177; A2780, human ovarian carcinoma cells, ECACC #93112519; DU 145, hormone-independent human prostate carcinoma cells, ATCC HTB-81; HeLa-MaTu-ADR, multidrug-resistant human cervical carcinoma cells, EPO-GmbH Berlin; Caco-2, human colorectal carcinoma cells, ATCC HTB-37; B16F10, mouse melanoma cells, ATCC CRL-6475) were plated at a density of 5,000 cells/well (DU145, HeLa-MaTu-ADR), 3,000 cells/well (NCI-H460, HeLa), 2,500 cells/well (A2780), 1,500 cells/well (Caco-2), or 1,000 cells/well (B16F10) in a 96-well multititer plate in 200 μL of their respective growth medium supplemented 10% fetal calf serum. After 24 hours, the cells of one plate (zero-point plate) were stained with crystal violet (see below), while the medium of the other plates was replaced by fresh culture medium (200 μl), to which the test substances were added in various concentrations (0 μM, as well as in the range of 0.001-10 μM; the final concentration of the solvent dimethyl sulfoxide was 0.5%). The cells were incubated for 4 days in the presence of test substances. Cell proliferation was determined by staining the cells with crystal violet: the cells were fixed by adding 20 μl/measuring point of an 11% glutaric aldehyde solution for 15 minutes at room temperature. After three washing cycles of the fixed cells with water, the plates were dried at room temperature. The cells were stained by adding 100 μl/measuring point of a 0.1% crystal violet solution (pH 3.0). After three washing cycles of the stained cells with water, the plates were dried at room temperature. The dye was dissolved by adding 100 μl/measuring point of a 10% acetic acid solution. The extinction was determined by photometry at a wavelength of 595 nm. The change of cell number, in percent, was calculated by normalization of the measured values to the extinction values of the zero-point plate (=0%) and the extinction of the untreated (0 μm) cells (=100%). The IC50 values (inhibitory concentration at 50% of maximal effect) were determined by means of a 4 parameter fit.

CS(=O)(Cc1cccc(Nc2ncc(F)c(-c3ccc(F)c4ccoc34)n2)c1)=NC#N (racemic) [Example 1, (rac)-[(3-{[5-Fluoro-4-(4-fluoro-1-benzofuran-7-yl)pyrimidin-2-yl]amino}benzyl)(methyl)oxido-λ^6-sulfanylidene]cyanamide]
pIC50 (CDK2/CycE): 7.12
pIC50 (HeLa-MaTu-ADR cells; Homo sapiens, 96 h): 6.87

CS(=N)(=O)Cc1cccc(Nc2ncc(F)c(-c3ccc(F)c4ccoc34)n2)c1 (racemic) [Example 4, (rac)-5-Fluoro-4-(4-fluoro-1-benzofuran-7-yl)-N-{3-[(S-methylsulfonimidoyl)-methyl]phenyl}-pyrimidin-2-amine]
pIC50 (CDK2/CycE): 6.96
pIC50 (HeLa-MaTu-ADR cells; Homo sapiens, 96 h): 6.84

CS(=O)(Cc1cc(F)cc(Nc2ncc(F)c(-c3ccc(F)c4ccoc34)n2)c1)=NC#N (racemic) [Example 7, (rac)-[(3-Fluoro-5-{[5-fluoro-4-(4-fluoro-1-benzofuran-7-yl)pyrimidin-2-yl]amino}benzyl)(methyl)-oxido-λ^6-sulfanylidene]cyanamide]
pIC50 (CDK2/CycE): 7.25
pIC50 (HeLa-MaTu-ADR cells; Homo sapiens, 96 h): 7.22

CS(=N)(=O)Cc1cc(F)cc(Nc2ncc(F)c(-c3ccc(F)c4ccoc34)n2)c1 (racemic) [Example 10, (rac)-5-Fluoro-4-(4-fluoro-1-benzofuran-7-yl)-N-{3-fluoro-5-[(S-methylsulfonimidoyl)-methyl]-phenyl}-pyrimidin-2-amine]
pIC50 (CDK2/CycE): 7.30

Cc1cc(CS(C)(=O)=NC#N)cc(Nc2ncc(F)c(-c3ccc(F)c4ccoc34)n2)c1 (racemic) [Example 13, (rac)-[(3-{[5-Fluoro-4-(4-fluoro-1-benzofuran-7-yl)pyrimidin-2-yl]amino}-5-methylbenzyl)-(methyl)oxido-λ^6-sulfanylidene]cyanamide]
pIC50 (CDK2/CycE): 7.39
pIC50 (HeLa-MaTu-ADR cells; Homo sapiens, 96 h): 7.43

Cc1cc(CS(C)(=N)=O)cc(Nc2ncc(F)c(-c3ccc(F)c4ccoc34)n2)c1 (racemic) [Example 16, (rac)-5-Fluoro-4-(4-fluoro-1-benzofuran-7-yl)-N-{3-methyl-5-[(S-methylsulfonimidoyl)-methyl]phenyl}pyrimidin-2-amine]
pIC50 (CDK2/CycE): 7.10
pIC50 (HeLa-MaTu-ADR cells; Homo sapiens, 96 h): 7.39

CS(=O)(Cc1cc(Nc2ncc(F)c(-c3ccc(F)c4ccoc34)n2)cc(S(F)(F)(F)(F)F)c1)=NC#N (racemic) [Example 17, (rac)-{[3-{[5-fluoro-4-(4-fluoro-1-benzofuran-7-yl)pyrimidin-2-yl]amino}-5-(pentafluoro-λ^6-sulfanyl)benzyl](methyl)oxido-λ^6-sulfanylidene}cyanamide]
pIC50 (CDK2/CycE): 6.59
pIC50 (HeLa-MaTu-ADR cells; Homo sapiens, 96 h): 7.01

CS(=N)(=O)Cc1cc(Nc2ncc(F)c(-c3ccc(F)c4ccoc34)n2)cc(S(F)(F)(F)(F)F)c1 (racemic) [Example 18, (rac)-5-Fluoro-4-(4-fluoro-1-benzofuran-7-yl)-N-{3-[(S-methylsulfonimidoyl)methyl]-5-(pentafluoro-λ^6-sulfanyl)phenyl}pyrimidin-2-amine]
pIC50 (CDK2/CycE): 7.14
pIC50 (HeLa-MaTu-ADR cells; Homo sapiens, 96 h): 6.94

CS(=O)(Cc1cccc(Nc2ncc(F)c(-c3ccc(F)c4ccoc34)n2)c1)=NC#N (single isomer, unassigned) [Example 2, [(3-{[5-Fluoro-4-(4-fluoro-1-benzofuran-7-yl)pyrimidin-2-yl]amino}benzyl)(methyl)oxido-λ^6-sulfanylidene]cyanamide]
pIC50 (CDK2/CycE): 7.72
pIC50 (HeLa-MaTu-ADR cells): 7.06

CS(=O)(Cc1cccc(Nc2ncc(F)c(-c3ccc(F)c4ccoc34)n2)c1)=NC#N (single isomer, unassigned) [Example 3, [(3-{[5-Fluoro-4-(4-fluoro-1-benzofuran-7-yl)pyrimidin-2-yl]amino}benzyl)(methyl)oxido-λ^6-sulfanylidene]cyanamide]
pIC50 (CDK2/CycE): 7.35
pIC50 (HeLa-MaTu-ADR cells; Homo sapiens, 96 h): 6.93

CS(=N)(=O)Cc1cccc(Nc2ncc(F)c(-c3ccc(F)c4ccoc34)n2)c1 (single isomer, unassigned) [Example 5, 5-Fluoro-4-(4-fluoro-1-benzofuran-7-yl)-N-{3-[(S-methylsulfonimidoyl)-methyl]-phenyl}-pyrimidin-2-amine]
pIC50 (CDK2/CycE): 7.05
pIC50 (HeLa-MaTu-ADR cells; Homo sapiens, 96 h): 6.72

CS(=N)(=O)Cc1cccc(Nc2ncc(F)c(-c3ccc(F)c4ccoc34)n2)c1 (single isomer, unassigned) [Example 6, 5-Fluoro-4-(4-fluoro-1-benzofuran-7-yl)-N-{3-[(S-methylsulfonimidoyl)-methyl]-phenyl}-pyrimidin-2-amine]
pIC50 (CDK2/CycE): 7.24
pIC50 (HeLa-MaTu-ADR cells): 7.02

CS(=O)(Cc1cc(F)cc(Nc2ncc(F)c(-c3ccc(F)c4ccoc34)n2)c1)=NC#N (single isomer, unassigned) [Example 8, [(3-Fluoro-5-{[5-fluoro-4-(4-fluoro-1-benzofuran-7-yl)pyrimidin-2-yl]amino}benzyl)(methyl)-oxido-λ^6-sulfanylidene]cyanamide]
pIC50 (CDK2/CycE): 7.21
pIC50 (HeLa-MaTu-ADR cells; Homo sapiens, 96 h): 7.46

CS(=O)(Cc1cc(F)cc(Nc2ncc(F)c(-c3ccc(F)c4ccoc34)n2)c1)=NC#N (single isomer, unassigned) [Example 9, [(3-Fluoro-5-{[5-fluoro-4-(4-fluoro-1-benzofuran-7-yl)pyrimidin-2-yl]amino}benzyl)(methyl)-oxido-λ^6-sulfanylidene]cyanamide]
pIC50 (CDK2/CycE): 7.06
pIC50 (HeLa-MaTu-ADR cells): 7.38

CS(=N)(=O)Cc1cc(F)cc(Nc2ncc(F)c(-c3ccc(F)c4ccoc34)n2)c1 (single isomer, unassigned) [Example 11, 5-Fluoro-4-(4-fluoro-1-benzofuran-7-yl)-N-{3-fluoro-5-[(S-methylsulfonimidoyl)-methyl]-phenyl}-pyrimidin-2-amine]
pIC50 (CDK2/CycE): 7.14
pIC50 (HeLa-MaTu-ADR cells): 6.70

CS(=N)(=O)Cc1cc(F)cc(Nc2ncc(F)c(-c3ccc(F)c4ccoc34)n2)c1 (single isomer, unassigned) [Example 12, 5-Fluoro-4-(4-fluoro-1-benzofuran-7-yl)-N-{3-fluoro-5-[(S-methylsulfonimidoyl)-methyl]-phenyl}-pyrimidin-2-amine]
pIC50 (CDK2/CycE): 7.32
pIC50 (HeLa-MaTu-ADR cells): 7.06

Cc1cc(CS(C)(=O)=NC#N)cc(Nc2ncc(F)c(-c3ccc(F)c4ccoc34)n2)c1 (single isomer, unassigned) [Example 14, [(3-{[5-Fluoro-4-(4-fluoro-1-benzofuran-7-yl)pyrimidin-2-yl]amino}-5-methylbenzyl)-(methyl)oxido-λ^6-sulfanylidene]cyanamide]
pIC50 (CDK2/CycE): 7.19
pIC50 (HeLa-MaTu-ADR cells; Homo sapiens, 96 h): 7.24

Cc1cc(CS(C)(=O)=NC#N)cc(Nc2ncc(F)c(-c3ccc(F)c4ccoc34)n2)c1 (single isomer, unassigned) [Example 15, [(3-{[5-Fluoro-4-(4-fluoro-1-benzofuran-7-yl)pyrimidin-2-yl]amino}-5-methylbenzyl)-(methyl)oxido-λ^6-sulfanylidene]cyanamide]
pIC50 (CDK2/CycE): 7.02
pIC50 (HeLa-MaTu-ADR cells): 6.96
